Columns and labels:
hOT receptor = molecular target: T1, hOT receptor (Homo sapiens, UniProt P30559); test: In vitro competition binding assay on hOT receptor with scintillating proximity assay; settings: membranes from HEK293EBNA cells expressing hOT receptor; radiolabel [125I]-OVTA; SPA; read-out: Binding Affinity Human OT-R Ki
T1 construct: expressed in transfected cells; host or cells: HEK293EBNA cells (membranes)
T1 sequence (P30559 1-389): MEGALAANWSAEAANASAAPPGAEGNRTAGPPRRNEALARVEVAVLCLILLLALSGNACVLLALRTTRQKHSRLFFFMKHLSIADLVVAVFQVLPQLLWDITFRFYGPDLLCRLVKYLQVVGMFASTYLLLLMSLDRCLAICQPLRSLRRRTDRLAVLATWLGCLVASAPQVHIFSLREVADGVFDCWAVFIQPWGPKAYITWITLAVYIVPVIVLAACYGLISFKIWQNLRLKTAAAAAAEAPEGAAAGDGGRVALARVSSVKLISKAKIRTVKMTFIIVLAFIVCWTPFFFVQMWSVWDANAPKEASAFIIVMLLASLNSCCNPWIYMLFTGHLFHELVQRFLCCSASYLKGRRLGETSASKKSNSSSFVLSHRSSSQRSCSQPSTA
Experimental: a) In Vitro Competition Binding Assay on hOT Receptor with Scintillating Proximity Assay (Pharmaceutical Manufacturing International, 1992, p. 49-53 by Cook, N. D. et al)
This assays allows to determine the affinity of the test compounds for the OT receptor. Membranes from HEK293EBNA cells expressing the hOT receptor were resuspended in buffer containing 50 mM Tris-HCl, pH 7.4, 5 mM MgCl2 and 0.1% BSA (w/v). The membranes (2-4 μg) were mixed with 0.1 mg wheat-germ aglutinin (WGA) SPA bead (type A) and 0.2 nM of the radiolabel [^125I]-OVTA (OVTA being […] and is an analogue of OT for competition binding experiments). Non-specific binding was determined in the presence of 1 μM Oxytocin. The total assay volume was 100 μl. The plates (Corning (D NBS plate) were incubated at room temperature for 30 min and counted on a Mibrobeta plate counter. The tests compounds were used in concentrations of 30 μM, 10 μM, 1 μM, 300 nM, 100 nM, 10 nM, 1 nM, 100 pM, 10 pM. The competition binding data were analysed using the iterative, nonlinear, curve-fitting program, “Prism”.
The binding affinities to the oxytocin receptor of the sulfanilide derivatives claimed in the formula I were assessed using the above described in vitro biological assay. The values refer to the binding affinity (IC50; μM) of the example compounds according to formula I to the Oxytocin receptor. From the values shown in Table 1 it can be derived that said test compounds according to formula I do show a significant binding to the oxytocin receptor.

Row | Compound | Ki (hOT receptor) [nM] | melting point
1 | O=C(CN(c1ccc(Cl)cc1)S(=O)(=O)c1cccs1)N/N=C1\C(=O)Nc2ccccc21 [Example 36, N-(4-chlorophenyl)-N-{2-oxo-2-[(2Z)-2-(2-oxo-1,2-dihydro-3H-indol-3-ylidene)hydrazino]ethyl}-2-thiophenesulfonamide] | 29.3 | –
2 | Cc1ccc(N(CC(=O)N/N=C2/C(=O)Nc3ccccc32)S(=O)(=O)c2cccc3ccccc23)cc1 [Example 6, N-(4-methylphenyl)-N-{2-oxo-2-[2-(2-oxo-1,2-dihydro-3H-indol-3-ylidene)hydrazino]ethyl}-1-naphthalenesulfonamide] | – | 138 to 139 °C
3 | COc1ccc(S(=O)(=O)N(CC(=O)N/N=C2/C(=O)Nc3ccccc32)c2ccc(Cl)cc2)cc1OC [Example 27, N-(4-chlorophenyl)-3,4-dimethoxy-N-{2-oxo-2-[(2E)-2-(2-oxo-1,2-dihydro-3H-indol-3-ylidene)hydrazino]ethyl}benzenesulfonamide] | – | 132 to 133 °C
4 | CCOc1ccc(S(=O)(=O)N(CC(=O)N/N=C\c2ccc(N(CC)CC)cc2O)c2ccc(C)cc2)cc1 [Example 16, N-(2-{2-[4-(diethylamino)-2-hydroxybenzylidene]hydrazino}-2-oxoethyl)-4-ethoxy-N-(4-methylphenyl)benzenesulfonamide] | – | 227 to 228 °C
5 | O=C(CN(c1ccc(Br)cc1)S(=O)(=O)c1ccccc1)Nc1cccc2cccnc12 [2-[Benzenesulfonyl-(4-bromo-phenyl)-amino]-N-quinolin-8-yl-acetamide] | 192 | –
6 | Cc1ccc(N(CC(=O)N/N=C2/C(=O)Nc3ccccc32)S(=O)(=O)c2ccc(C(C)(C)C)cc2)cc1 [Example 28, 4-tert-Butyl-N-(4-methylphenyl)-N-{2-oxo-2-[(2E)-2-(2-oxo-1,2-dihydro-3H-indol-3-ylidene)hydrazino]ethyl}benzenesulfonamide] | – | 139 to 140 °C
7 | O=C(CN(c1ccc(Cl)cc1)S(=O)(=O)c1ccc(OCc2cccs2)cc1)N/N=C1\C(=O)Nc2ccccc21 [Example 60, N-(4-chlorophenyl)-N-{2-oxo-2-[(2Z)-2-(2-oxo-1,2-dihydro-3H-indol-3-ylidene)hydrazino]ethyl}-4-(2-thienylmethoxy)benzenesulfonamide] | 53.3 | –
8 | CCOc1ccc(S(=O)(=O)N(CC(=O)N/N=C2/C(=O)Nc3ccc(I)cc32)c2ccccc2)cc1 [Example 4, 4-ethoxy-N-{2-[2-(5-iodo-2-oxo-1,2-dihydro-3H-indol-3-ylidene)hydrazino]-2-oxoethyl}-N-phenylbenzenesulfonamide] | – | 233 to 234 °C
9 | CCOc1ccc(S(=O)(=O)N(CC(=O)N2Cc3ccccc3CC2C(N)=O)c2ccc(OC)cc2)cc1 (centres unmarked) [Example 91, 2-({[(4-Ethoxyphenyl)sulfonyl]-4-methoxyanilino}acetyl)-1.2,3,4-tetrahydro-3-isoquinolinecarboxamide] | 316 | –
10 | CCOc1ccc(S(=O)(=O)N(CC(=O)N/N=C2\C(=O)Nc3ccncc32)c2ccc(Cl)cc2)cc1 [Example 50, N-(4-chlorophenyl)-4-ethoxy-N-{2-oxo-2-[(2Z)-2-(2-oxo-1,2-dihydro-3H-pyrrolo[3,2-c]pyridin-3-ylidene)hydrazino]ethyl}benzenesulfonamide] | 57.1 | –
11 | CCOc1ccc(S(=O)(=O)N(CC(=O)N2Cc3ccccc3CC2CC(N)=O)c2ccc(C)cc2)cc1 (centres unmarked) [Example 89, 2-[2-({[(4-Ethoxyphenyl)sulfonyl]-4-methylanilino}acetyl)-1,2,3,4-tetrahydro-3-isoguinolinyl]acetamide] | 498 | –
12 | Cc1ccc(N(CC(=O)N2CCc3ccccc3C2)S(=O)(=O)c2ccccc2)cc1 [N-[2-(3,4-Dihydro-1H-isoquinolin-2-yl)-2-oxo-ethyl]-N-p-tolyl-benzenesulfonamide] | 472 | –
13 | CN(C)CCCOc1ccc(S(=O)(=O)N(CC(=O)N/N=C2\C(=O)Nc3ccncc32)c2ccc(Cl)cc2)cc1 [Example 68, N-(4-chlorophenyl)-4-[3-(dimethylamino)propoxy]-N-{2-oxo-2-[(2Z)-2-(2-oxo-1,2-dihydro-3H-pyrrolo[3,2-c]pyridin-3-ylidene)hydrazino]ethyl}benzenesulfonamide] | 78.1 | –
14 | N-(4-chlorophenyl)-4-ethoxy-N-{2-[(2E)-2-(2-hydroxybenzylidene)hydrazino]-2-oxoethyl}benzenesulfonamide [Example 38] | 14.8 | –
15 | CN(C)CCOc1ccc(S(=O)(=O)N(CC(=O)N/N=C2\C(=O)Nc3ccccc32)c2ccc(Cl)cc2)cc1 [Example 57, N-(4-chlorophenyl)-4-[2-(dimethylamino)ethoxy]-N-{2-oxo-2-[(2Z)-2-(2-oxo-1.2-dihydro-3H-indol-3-ylidene)hydrazino]ethyl}benzenesulfonamide] | 1.8 | –
16 | COc1ccc(N(CC(=O)N2Cc3ccccc3CC2CC(N)=O)S(=O)(=O)c2ccc(OC)c(OC)c2)cc1 (centres unmarked) [Example 82, 2-[2-({[(3,4-Dimethoxyphenyl)sulfonyl]-4-methoxyanilino}acetyl)-1,2,3,4-tetrahydro-3-isoquinolinyl]acetamide] | 465 | –

The remaining lines, values ahead:

Row | Ki (hOT receptor) [nM] | melting point | Compound
17 | 1.2 | – | CCOc1ccc(S(=O)(=O)N(CC(=O)N/N=C\c2ccccc2O)c2ccc(C)cc2)cc1 [Example 15, 4-ethoxy-N-{2-[2-(2-hydroxybenzylidene)hydrazino]-2-oxoethyl}-N-(4-methylphenyl)benzenesulfonamide]
18 | – | 234 to 235 °C | Cc1ccc(N(CC(=O)N/N=C2/C(=O)Nc3ccccc32)S(=O)(=O)c2ccc(Cl)cc2)cc1 [Example 8, 4-chloro-N-(4-methylphenyl)-N-{2-oxo-2-[2-(2-oxo-1,2-dihydro-3H-indol-3-ylidene)hydrazino]ethyl}benzenesulfonamide]
19 | – | 198 to 199 °C | CCCc1ccc(S(=O)(=O)N(CC(=O)N/N=C2/C(=O)Nc3ccccc32)c2ccc(C)cc2)cc1 [Example 29, N-(4-methylphenyl)-N-{2-oxo-2-[(2E)-2-(2-oxo-12-dihydro-3H-indol-3-ylidene)hydrazino]ethyl}-4-propylbenzenesulfonamide]
20 | – | 318 to 319 °C (dec.) | CCOc1ccc(S(=O)(=O)N(CC(=O)N/N=C2/C(=O)Nc3ccc(S(=O)(=O)O)cc32)c2ccc(C)cc2)cc1 [Example 1, 3-[({[(4-ethoxyphenyl)sulfonyl]-4-methylanilino}acetyl)hydrazono]-2-oxo-2,3-dihydro-H-indole-5-sulfonic Acid]
21 | – | 243 to 244 °C | Cc1ccc(N(CC(=O)N/N=C2/C(=O)Nc3ccccc32)S(=O)(=O)c2ccc(C)cc2)cc1 [Example 10, 4-methyl-N-(4-methylphenyl)-N-{2-oxo-2-[2-(2-oxo-1,2-dihydro-3H-indol-3-ylidene)hydrazino]ethyl}benzenesulfonamide]
22 | – | 109 to 110 °C | CCOc1ccc(S(=O)(=O)N(CC(=O)N/N=C2/C(=O)N(C)c3ccccc32)c2ccc(C)cc2)cc1 [Example 20, 4-ethoxy-N-{2-[2-(1-methyl-2-oxo-1,2-dihydro-3H-indol-3-ylidene)hydrazino]-2-oxoethyl}-N-(4-methylphenyl)benzenesulfonamide]
23 | – | 183 to 184 °C | CCOc1ccc(S(=O)(=O)N(CC(=O)N/N=C\c2ccccc2F)c2ccc(C)cc2)cc1 [Example 12, 4-ethoxy-N-{2-[2-(2-fluorobenzylidene)hydrazino]-2-oxoethyl}-N-(4-methylphenyl)benzenesulfonamide]
24 | – | 135.5 to 136.5 °C | CCOc1ccc(S(=O)(=O)N(CC(=O)N/N=C2/C(=O)Nc3ccccc32)c2ccccc2)cc1 [Example 2, 4-ethoxy-N-{2-oxo-2-[2-(2-oxo-1,2-dihydro-3H-indol-3-ylidene)hydrazino]-ethyl}-N-phenylbenzenesulfonamide]
25 | – | 199 to 200 °C | CCOc1ccc(S(=O)(=O)N(CC(=O)N/N=C(/C)c2ccccc2O)c2ccc(C)cc2)cc1 [Example 22, 4-ethoxy-N-(2-{2-[1-(2-hydroxyphenyl)ethylidene]hydrazino}-2-oxoethyl)-N-(4-methylphenyl)benzenesulfonamide]
26 | 0.3 | – | Cc1ccc(N(CC(=O)N/N=C2\C(=O)Nc3ccccc32)S(=O)(=O)c2ccc(OCCCN(C)C)cc2)cc1 [Example 59, 4-[3-(Dimethylamino)propoxy]-N-(4-methylphenyl)-N-{2-oxo-2-[(2Z)-2-(2-oxo-1,2-dihydro-3H-indol-3-ylidene)hydrazino]ethyl}benzenesulfonamide]
